# In article PMC3997483, “Aminostyrylbenzofuran Directly Reduces Oligomeric Amyloid-β and Reverses Cognitive Deficits in Alzheimer Transgenic Mice” (PLoS ONE, 2014):
# System: SD rats
# Experiment: 2-week repeated oral dose toxicity study
# Type: in vivo
# Conditions: for Abnormal gross findings of necropsy (changed animals / total) / Basophils / Body Weight (at necropsy) / Brain weight / CH / CHCM / Eosinophils / HDW / Heart weight / Hematocrit / Hemoglobin / LUC / Left adrenal weight / Left kidney weight / Left testis weight / Liver weight / Lung weight / Lympocytes / MCH / MCHC / MCV / MPV / Monocytes / Mortality (dead animals / total number of animals) / Neutrophils / Platelet / RBC / RDW / Rate body weight / brain / Rate body weight / heart / Rate body weight / left adrenal / Rate body weight / left kidney / Rate body weight / left testis / Rate body weight / liver / Rate body weight / lung / Rate body weight / right adrenal / Rate body weight / right kidney / Rate body weight / right testis / Rate body weight / spleen / Rate body weight / thymus / Retic / Right adrenal weight / Right kidney weight / Right testis weight / Spleen weight / Symptomatic signs / Thymus weight / WBC: 2 weeks
# Experimental: KMS88009 was orally administered once a day by gavage for 14 consecutive days at dose level of 0 (vehicle), 100, 300 and 1,000 mg/kg (n = 5 per group). […] Organs were collected at necropsy; adrenal, kidney, thymus, spleen, heart, lung, liver, testis and brain. The absolute organ weights were measured and the organs-to-body weight ratios were calculated. Blood samples for hematological evaluation were collected from vein of animals under ether anesthesia. Food was withheld overnight before necropsy and blood collections. EDTA was used as an anticoagulant for hematology samples. White blood cell (WBC), red blood cell (RBC), hemoglobin concentration (HGB), hematocrit (HCT), mean corpuscular volume (MCV), mean corpuscular hemoglobin (MCH), mean corpuscular hemoglobin concentration (MCHC), cell hemoglobin concentration mean (CHCM), cell hemoglobin (CH), red cell distribution width (RDW), hemoglobin distribution width (HDW), platelet count (PLT), mean platelet volume (MPV) and reticulocyte were measured by a hematological autoanalyzer (ADVIA 120, Bayer, USA). To get the serum for biochemical analyses, blood samples in a separation tube were centrifuged at 4,000 rpm for 10 min on the day of necropsy. The serum was kept frozen at -70°C until analysis. Sodium citrate was used as an anticoagulant for biochemical analyses. Serum biochemical parameters including aspartate aminotransferase (AST), alanine aminotransferase (ALT), alkaline phosphatase (ALP), total bilirubin (T-Bil), albumin, total protein (TP), albumin/globulin ratio (A/G ratio), glucose, total cholesterol (CHO), triglyceride (TG), lactate dehydrogenase (LDH), creatine kinase (CK), blood urea nitrogen (BUN), creatinine (CRE), blood urea nitrogen/creatinine ratio (B/C ratio), Na^+, K^+ and Cl^- were evaluated by an autoanalyzer (Shimadzu CL-7200, Shimadzu Co., Japan).
# All data for single and 2-week repeated oral dose toxicity studies were expressed as the mean ± SD Difference between control and treated groups were evaluated with one-way analysis of variance (ANOVA) followed by Dunnett's test. Value P<0.05 was taken as being statistically significant. Statistical analyses were performed using GraphPad Prism software (USA).
compound,measurement,setting,value
"COc1ccc2cc(C=Cc3ccc(N(C)C)cc3)oc2c1 [KMS88009, 6-methoxy-2-(4-dimethylaminostyryl) benzofuran]",no-observed-adverse-effect-level,"SD rats, 2-week repeated oral administration","over 1,000 mg/kg"
same,Abnormal gross findings of necropsy (changed animals / total),rats PO 100 mg/kg/day,0 / 5
same,Basophils,rats PO 100 mg/kg/day,0.02 ± 0.01 x10^3/μL
same,Body Weight (at necropsy),rats PO 100 mg/kg/day,316.188 ± 16.093 g
same,Brain weight,rats PO 100 mg/kg/day,1.948 ± 0.032 g
same,CH,rats PO 100 mg/kg/day,20.3 ± 0.4 pg
same,CHCM,rats PO 100 mg/kg/day,34.0 ± 0.4 g/dL
same,Eosinophils,rats PO 100 mg/kg/day,0.07 ± 0.08 x10^3/μL
same,HDW,rats PO 100 mg/kg/day,2.22 ± 0.08 g/dL
same,Heart weight,rats PO 100 mg/kg/day,1.067 ± 0.098 g
same,Hematocrit,rats PO 100 mg/kg/day,43.2 ± 2.6%
same,Hemoglobin,rats PO 100 mg/kg/day,14.3 ± 1.0 g/dL
same,LUC,rats PO 100 mg/kg/day,0.03 ± 0.02 x10^3/μL
same,Left adrenal weight,rats PO 100 mg/kg/day,0.027 ± 0.005 g
same,Left kidney weight,rats PO 100 mg/kg/day,1.279 ± 0.083 g
same,Left testis weight,rats PO 100 mg/kg/day,1.440 ± 0.114 g
same,Liver weight,rats PO 100 mg/kg/day,10.988 ± 0.881 g
same,Lung weight,rats PO 100 mg/kg/day,1.212 ± 0.077 g
same,Lympocytes,rats PO 100 mg/kg/day,6.64 ± 1.79 x10^3/μL
same,MCH,rats PO 100 mg/kg/day,19.8 ± 0.5 pg
same,MCHC,rats PO 100 mg/kg/day,33.1 ± 0.5 g/dL
same,MCV,rats PO 100 mg/kg/day,59.7 ± 1.3 fL
same,MPV,rats PO 100 mg/kg/day,7.66 ± 0.2 fL
same,Monocytes,rats PO 100 mg/kg/day,0.12 ± 0.03 x10^3/μL
same,Mortality (dead animals / total number of animals),rats PO 100 mg/kg/day,0 / 5
same,Neutrophils,rats PO 100 mg/kg/day,1.74 ± 0.68 x10^3/μL
same,Platelet,rats PO 100 mg/kg/day,1283 ± 239 x10^3/μL
same,RBC,rats PO 100 mg/kg/day,7.25 ± 0.46 x10^6/μL
same,RDW,rats PO 100 mg/kg/day,12.0 ± 0.3%
same,Rate body weight / brain,rats PO 100 mg/kg/day,0.617 ± 0.026%
same,Rate body weight / heart,rats PO 100 mg/kg/day,0.337 ± 0.024%
same,Rate body weight / left adrenal,rats PO 100 mg/kg/day,0.009 ± 0.002%
same,Rate body weight / left kidney,rats PO 100 mg/kg/day,0.404 ± 0.009%
same,Rate body weight / left testis,rats PO 100 mg/kg/day,0.456 ± 0.036%
same,Rate body weight / liver,rats PO 100 mg/kg/day,3.473 ± 0.154%
same,Rate body weight / lung,rats PO 100 mg/kg/day,0.384 ± 0.031%
same,Rate body weight / right adrenal,rats PO 100 mg/kg/day,0.008 ± 0.001%
same,Rate body weight / right kidney,rats PO 100 mg/kg/day,0.414 ± 0.026%
same,Rate body weight / right testis,rats PO 100 mg/kg/day,0.459 ± 0.042%
same,Rate body weight / spleen,rats PO 100 mg/kg/day,0.230 ± 0.048%
same,Rate body weight / thymus,rats PO 100 mg/kg/day,0.205 ± 0.022%
same,Retic,rats PO 100 mg/kg/day,324.8 ± 18.9 ^* x10^3/μL
same,Right adrenal weight,rats PO 100 mg/kg/day,0.025 ± 0.002 g
same,Right kidney weight,rats PO 100 mg/kg/day,1.310 ± 0.101 g
same,Right testis weight,rats PO 100 mg/kg/day,1.450 ± 0.133 g
same,Spleen weight,rats PO 100 mg/kg/day,0.731 ± 0.188 g
same,Symptomatic signs,rats PO 100 mg/kg/day,-
same,Thymus weight,rats PO 100 mg/kg/day,0.649 ± 0.073 g
same,WBC,rats PO 100 mg/kg/day,8.62 ± 1.70 x10^3/μL
same,Body weight,"rats PO 100 mg/kg/day, day 1",227.6 ± 7.8 g
same,Body weight,"rats PO 100 mg/kg/day, day 4",253.1 ± 7.0 g
same,Body weight,"rats PO 100 mg/kg/day, day 8",297.2 ± 9.3 g
same,Body weight,"rats PO 100 mg/kg/day, day 11",321.2 ± 13.1 g
same,Body weight,"rats PO 100 mg/kg/day, day 14",344.4 ± 17.1 g
same,Abnormal gross findings of necropsy (changed animals / total),rats PO 300 mg/kg/day,0 / 5
same,Basophils,rats PO 300 mg/kg/day,0.01 ± 0.01 x10^3/μL
same,Body Weight (at necropsy),rats PO 300 mg/kg/day,312.382 ± 14.169 g
same,Brain weight,rats PO 300 mg/kg/day,1.680 ± 0.211 g
same,CH,rats PO 300 mg/kg/day,20.4 ± 0.7 pg
same,CHCM,rats PO 300 mg/kg/day,34.2 ± 0.3 g/dL
same,Eosinophils,rats PO 300 mg/kg/day,0.03 ± 0.01 x10^3/μL
same,HDW,rats PO 300 mg/kg/day,2.28 ± 0.12 g/dL
same,Heart weight,rats PO 300 mg/kg/day,1.002 ± 0.038 g
same,Hematocrit,rats PO 300 mg/kg/day,41.4 ± 1.9%
same,Hemoglobin,rats PO 300 mg/kg/day,13.9 ± 0.7 g/dL
same,LUC,rats PO 300 mg/kg/day,0.02 ± 0.01 x10^3/μL
same,Left adrenal weight,rats PO 300 mg/kg/day,0.026 ± 0.004 g
same,Left kidney weight,rats PO 300 mg/kg/day,1.237 ± 0.082 g
same,Left testis weight,rats PO 300 mg/kg/day,1.515 ± 0.189 g
same,Liver weight,rats PO 300 mg/kg/day,10.601 ± 0.687 g
same,Lung weight,rats PO 300 mg/kg/day,1.214 ± 0.128 g
same,Lympocytes,rats PO 300 mg/kg/day,3.98 ± 0.96 x10^3/μL
same,MCH,rats PO 300 mg/kg/day,20.0 ± 0.6 pg
same,MCHC,rats PO 300 mg/kg/day,33.4 ± 0.4 g/dL
same,MCV,rats PO 300 mg/kg/day,59.7 ± 1.5 fL
same,MPV,rats PO 300 mg/kg/day,7.84 ± 0.4 fL
same,Monocytes,rats PO 300 mg/kg/day,0.08 ± 0.02 x10^3/μL
same,Mortality (dead animals / total number of animals),rats PO 300 mg/kg/day,0 / 5
same,Neutrophils,rats PO 300 mg/kg/day,0.84 ± 0.21 x10^3/μL
same,Platelet,rats PO 300 mg/kg/day,1309 ± 50 x10^3/μL
same,RBC,rats PO 300 mg/kg/day,6.93 ± 0.26 x10^6/μL
same,RDW,rats PO 300 mg/kg/day,11.9 ± 0.4%
same,Rate body weight / brain,rats PO 300 mg/kg/day,0.537 ± 0.059%
same,Rate body weight / heart,rats PO 300 mg/kg/day,0.321 ± 0.011%
same,Rate body weight / left adrenal,rats PO 300 mg/kg/day,0.008 ± 0.001%
same,Rate body weight / left kidney,rats PO 300 mg/kg/day,0.396 ± 0.020%
same,Rate body weight / left testis,rats PO 300 mg/kg/day,0.487 ± 0.075%
same,Rate body weight / liver,rats PO 300 mg/kg/day,3.393 ± 0.133%
same,Rate body weight / lung,rats PO 300 mg/kg/day,0.389 ± 0.037%
same,Rate body weight / right adrenal,rats PO 300 mg/kg/day,0.008 ± 0.001%
same,Rate body weight / right kidney,rats PO 300 mg/kg/day,0.406 ± 0.008%
same,Rate body weight / right testis,rats PO 300 mg/kg/day,0.455 ± 0.023%
same,Rate body weight / spleen,rats PO 300 mg/kg/day,0.201 ± 0.037%
same,Rate body weight / thymus,rats PO 300 mg/kg/day,0.196 ± 0.036%
same,Retic,rats PO 300 mg/kg/day,277.8 ± 39.6 x10^3/μL
same,Right adrenal weight,rats PO 300 mg/kg/day,0.025 ± 0.004 g
same,Right kidney weight,rats PO 300 mg/kg/day,1.266 ± 0.035 g
same,Right testis weight,rats PO 300 mg/kg/day,1.420 ± 0.086 g
same,Spleen weight,rats PO 300 mg/kg/day,0.629 ± 0.130 g
same,Symptomatic signs,rats PO 300 mg/kg/day,-
same,Thymus weight,rats PO 300 mg/kg/day,0.613 ± 0.115 g
same,WBC,rats PO 300 mg/kg/day,4.95 ± 1.05 x10^3/μL
same,Body weight,"rats PO 300 mg/kg/day, day 1",227.8 ± 7.1 g
same,Body weight,"rats PO 300 mg/kg/day, day 4",250.5 ± 9.9 g
same,Body weight,"rats PO 300 mg/kg/day, day 8",294.2 ± 14.6 g
